According to PubChem BioAssay (NCI):
Where “and” joins values, the source holds several entries; their conditions need not be identical. Equal entries are not always repeated.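 How tested: cells in 96-well plates exposed to compound for 48 hours at five concentrations. TGI: concentration producing complete growth inhibition.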

Tests used:
Test in all cases: inhibition of tumour cell growth, NCI panel, 48 h
[1] = system: NCI/ADR-RES ovarian
[2] = system: EKVX NSCLC
[3] = system: TK-10 renal
[4] = system: HT29 colon
[5] = system: PC-3 prostate
[6] = system: SNB-19 CNS
[7] = system: A498 renal
[8] = system: SK-MEL-5 melanoma
[9] = system: SF-268 CNS

Compound | TGI [1] | TGI [2] | TGI [3] | TGI [4] | TGI [5] | TGI [6] | TGI [7] | TGI [8] | TGI [9]
Cc1cc(NCc2ccccc2)c2ccccc2[n+]1CCCCCCCCCC[n+]1c(C)cc(NCc2ccccc2)c2ccccc21 | 21.9 µM | 13.4 µM | 3.17 µM | 1.63 µM | 5.16 µM | > 100 µM | 14.5 µM | 0.638 µM | 2.45 µM
COC(=O)C1CCCN1C(=O)C(Cc1cn(S(=O)(=O)c2ccc(C)cc2)cn1)NC(=O)OC(C)(C)C (stereo unspecified) |  | > 100 µM | > 100 µM | > 100 µM | > 100 µM | > 100 µM | > 100 µM | > 100 µM | 
CSc1cnc2ccccc2c1SC1CN(Cc2ccccc2)c2ccccc2C1=O (stereo unspecified) | > 100 µM | > 100 µM | > 100 µM | > 100 µM | > 100 µM | > 100 µM | > 100 µM | > 100 µM | > 100 µM
N#Cc1c(Cl)cc(Cl)n2c1nc1ccccc12 | 40.5 µM | 67.6 µM | 18.1 µM | 23.6 µM | 29.3 µM | 50.7 µM | 47.3 µM | 32.7 µM | 40.1 µM
Cc1ccc(S(=O)(=O)NC(=O)N[C@@H](Cc2cnc[nH]2)C(=O)O)cc1 | > 100 µM |  | > 100 µM | > 100 µM | > 100 µM | > 100 µM |  | > 100 µM | > 100 µM
CC1=NNC(=O)C1C(CC(=O)c1c[nH]c2ccccc12)C(=O)O (stereo unspecified) | > 100 µM | > 100 µM | > 100 µM | > 100 µM | > 100 µM | > 100 µM | > 100 µM | > 100 µM | > 100 µM
CC(C)(C)OC(=O)NCCCNC1(c2cc3ccccc3s2)CCCCC1 | 30.2 µM | 28.6 µM | 32 µM | 13.4 µM | 47.6 µM | 27.2 µM | 29.8 µM | 27.3 µM | 33.8 µM
C#C[C@]1(O)CC[C@H]2[C@@H]3CCC4=C/C(=N/OC(=O)c5cccc6c(=O)c7ccccc7[nH]c56)CC[C@@H]4[C@H]3CC[C@@]21C | > 100 µM | > 100 µM | > 100 µM | > 100 µM | > 100 µM | > 100 µM | > 100 µM | 45.8 µM | > 100 µM
CN1COCc2c1ccc1cc3ccc4c(c3nc21)COCN4S(C)(=O)=O | > 100 µM | > 100 µM | > 100 µM | > 100 µM | > 100 µM | > 100 µM | > 100 µM | > 100 µM | > 100 µM
CN(C)CCOC1(Cc2ccc(F)cc2)CCC(C(C)(C)C)CC1 (stereo unspecified) | 24.2 µM and 27.7 µM | 27.4 µM and 32.5 µM | 20.5 µM and 24.7 µM | 9.5 µM and 8.3 µM | 17.4 µM and 19 µM | 24.6 µM and 19.4 µM | 26 µM and 29.3 µM | 3.42 µM and 5.03 µM | 27.2 µM and 28 µM
CC(C)CC(O)P(=O)(O)O (stereo unspecified) |  | > 100 µM | > 100 µM | > 100 µM | > 100 µM | > 100 µM | > 100 µM | > 100 µM | 
CCNC(=O)Nc1cccc(NC(=O)NCC)n1 |  | > 100 µM | > 100 µM | > 100 µM | > 100 µM | > 100 µM | > 100 µM | > 100 µM | > 100 µM
